Measured values as given in patent publication US10088484B2, “Isolated mucins and different microorganisms, and methods of use” (Massachusetts Institute of Technology, priority 2015, dated 2018).

Assays:
[1] = test system: S. sanguinis; assay: S. mutans / S. sanguinis competition model, S. sanguinis survival (Example 2); format: cell-based, Streptococcus sanguinis
Excerpt: The effect of MUC5B on S. mutans and S. sanguinis competition and coexistence was examined. To examine the effect of MUC5B, a model was developed to allow sufficient competition between S. mutans and S. sanguinis (FIG. 7). The two bacteria compete when one colonizes the surface and the second bacteria is introduced after some time.
The presence of 0.3% mucins in control medium, BHI containing 1% sucrose (S Medium), enhances S. sanguinis survival when S. mutans is the primary colonizer (FIG. 8A). * statistically significant difference determined by Student's t test (p<0.05). […] When the ratios of bacteria are equal (FIG. 8C), there is less competition, and effect of MUC5B is small. When the ratio is slightly skewed (FIG. 8B), competition increases and the protective effect of MUC5B is visible. * statistically significant difference determined by Student's t test (p<0.05). The protective effect of MUC5B may increase as inter-species competition increases. […] MUC5B may play a role in establishing a healthy oral microbiome.
(§1) In FIG. 9, the biofilm is grown, then the supernatant is removed and the biofilm washed with PBS. To remove adherent cells, the bottom of the wells are scraped with a sterile pipette tip. Suspended cells are diluted, plated on agar and […] until colonies are visible.

[2] = test system: S. mutans; assay: S. mutans attachment and biofilm formation on glass (Example 2); format: cell-based, Streptococcus mutans; conditions: 0.3% polymer in BHI with 1% sucrose, compared to BHI with 1% sucrose
Method: as §1
As shown in FIG. 10A and FIG. 10B and FIG. 11A and FIG. 11B, salivary mucins decrease S. mutans attachment and biofilm formation. […] Error bars represent SDs. […] Scale Bars 20 μm.

[3] = test system: S. sanguinis; assay: CFU count assay, biofilm formation and total cells, single-species model, S. sanguinis; format: cell-based, Streptococcus sanguinis JFP36; conditions: for reduction of S. sanguinis biofilm formation: 0.4% polymer, relative to control
Method: (§2) For all experiments, S. mutans (bacterial strain Streptococcus mutans UA159) and S. sanguinis (erythromycin-resistant Streptococcus sanguinis JFP36) were grown overnight in Brain Heart Infusion (BHI) medium (Becton, Dickinson and Company). Before inoculating an experiment the cells were pelleted, washed with half-strength BHI containing 1% (wt/vol) sucrose (Sigma-Aldrich Company), then resuspended in half-strength BHI containing 1% sucrose. Acid-washed glass beads (425-600 μm, Sigma-Aldrich Company) were added to the resuspended bacteria to break up bacterial aggregates then the culture was vortexed for ten pulses of two seconds each. […] All experiments were performed in chambered glass slides at 37° C. with 5% CO2.
(§3) Equal numbers of CFU were inoculated into chambered glass slides then incubated. After a given amount of time, the supernatant was used to gently wash the biofilm to resuspend unattached cells, then the supernatant was removed. PBS was added to the wells then the biofilm was scraped using a sterile pipette tip. The supernatant and biofilm were vortexed with glass beads to individualize cells then the suspension was diluted, plated on BHI agar and incubated for 24-36 hours. […] Statistically significant differences were determined using the Student's t test, with P<0.05 considered significant.
(§4) The effect of MUC5B on S. sanguinis and S. mutans biofilm formation in single-species models was evaluated using colony forming units to quantify surface attached cells and the total number of viable cells in the supernatant and biofilm combined. Bacteria were grown in chambered glass slides in the presence of half-strength BHI with 1% sucrose and 0.4% MUC5B. […] Half-strength BHI was used to provide consistent media conditions throughout experiments in this study. […] All comparisons of viable CFU discussed in the results are determined relative to the control with half-strength BHI and 1% sucrose.

[4] = test system: S. mutans
Method: For dual-species models where S. mutans was the primary colonizer, S. mutans (10^7) was inoculated and incubated for 3 hours then S. sanguinis (10^6) was inoculated. For dual-species models where S. sanguinis was the primary colonizer, S. sanguinis (10^8) was inoculated, incubated for 3 hours, then S. mutans (10^7) was inoculated. After the secondary colonizer was inoculated, the dual-species culture was incubated until the time points indicated. For experiments quantifying biofilm formation, at the end of the experiment the supernatant was used to gently wash the biofilm to resuspend unattached cells, then the supernatant was removed. […] For experiments quantifying total cells, at the end of the experiment a sterile pipette tip was used to scrape the biofilm, then the suspension of biofilm and supernatant cells was vortexed with glass beads. […] Statistically significant differences were determined using the Student's t test, with P<0.05 considered significant.
An in vitro competition model was used to determine the effects of MUC5B on S. mutans and S. sanguinis biofilm formation when co-cultured. […] After 4 hours of co-culture, the supernatant was removed and the number of S. mutans and S. sanguinis in the biofilm were quantified by colony forming units. […] All comparisons of viable CFU discussed in the results are determined relative to the control with half-strength BHI and 1% sucrose. […]

[5] = test system: S. mutans; assay: S. mutans growth curve, mono-species culture (Example 3); format: cell-based, Streptococcus mutans UA159
Method: (§5) The suspensions were vortexed with glass beads to individualize cells, then approximately 10^6 cells were inoculated into wells of a 96-well polystyrene plate. At 2-hour intervals the bottom of the wells were scraped to remove any adherent cells, mixed, and an aliquot was removed, diluted and plated on BHI agar. Agar was incubated and CFU were counted after 24-36 hours.
(§6) The growth of S. mutans and S. sanguinis in the same medium used for competition experiments was evaluated to determine if the observed increase in viable cells in the presence of MUC5B (FIGS. 17A-C and FIGS. 18A-C) was due to enhanced bacterial growth. […] Growth in PBS containing MUC5B was studied to better understand if S. mutans and S. sanguinis can utilize MUC5B as a nutrient source when other nutrients are limited.

[6] = test system: S. mutans; assay: S. mutans growth curve and viable cell count (Example 2); format: cell-based, Streptococcus mutans; conditions: 0.3% polymer in BHI with 1% sucrose
Excerpt: As shown in FIG. 12 and FIG. 13, S. mutans survival is unaffected by salivary mucins. […] Error bars represent SDs. […] Error bars represent SDs.

[7] = test system: S. mutans; assay: CFU count assay, biofilm formation and total cells, single-species model, S. mutans; format: cell-based, Streptococcus mutans UA159; conditions: for reduction of S. mutans biofilm formation: 0.4% polymer
Method: as §2, §3, §4

[8] = test system: S. mutans; assay: Dual-species competition model, S. sanguinis primary colonizer: S. mutans CFU; format: cell-based, Streptococcus mutans UA159; conditions: for increase of S. mutans CFU (secondary colonizer): S. sanguinis primary colonizer
Method: For dual-species models where S. mutans was the primary colonizer, S. mutans (10^7) was inoculated and incubated for 3 hours then S. sanguinis (10^6) was inoculated. For dual-species models where S. sanguinis was the primary colonizer, S. sanguinis (10^8) was inoculated, incubated for 3 hours, then S. mutans (10^7) was inoculated. After the secondary colonizer was inoculated, the dual-species culture was incubated until the time points indicated. For experiments quantifying biofilm formation, at the end of the experiment the supernatant was used to gently wash the biofilm to resuspend unattached cells, then the supernatant was removed. PBS was added to the wells then the biofilm was scraped using a sterile pipette tip. For experiments quantifying total cells, at the end of the experiment a sterile pipette tip was used to scrape the biofilm, then the suspension of biofilm and supernatant cells was vortexed with glass beads. For both experiments, cell suspensions were diluted then plated on BHI agar containing 10 μg/ml erythromycin to select for S. sanguinis and BHI agar with 1 U/ml bacitracin to select for S. mutans. Agar was incubated for 24-36 hours. […] Statistically significant differences were determined using the Student's t test, with P<0.05 considered significant.
An in vitro competition model was used to determine the effects of MUC5B on S. mutans and S. sanguinis biofilm formation when co-cultured. In this model, the pioneering colonizer was incubated for 3 hours then the secondary colonizer was inoculated and co-cultured for 4 hours (FIG. 15). The competition model used in this study is based on previous work by Kreth et al, J. Bacteriol. 187:7193-7203 (2005). In addition, sequential inoculation allows us to study competition in models where either S. sanguinis or S. mutans is the dominant species, which is relevant to the natural environment of the oral cavity. After 4 hours of co-culture, the supernatant was removed and the number of S. mutans and S. sanguinis in the biofilm were quantified by colony forming units. This method was used to evaluate biofilm formation when S. mutans is the primary colonizer (FIG. 16A) and when S. sanguinis is the primary colonizer (FIG. 16B). All comparisons of viable CFU discussed in the results are determined relative to the control with half-strength BHI and 1% sucrose.
To evaluate the effect of MUC5B on the viability of S. mutans and S. sanguinis in a dual-species competition model, the primary colonizer was incubated for 3 hours then inoculated the secondary colonizer and evaluated the total number of viable cells for each species over several hours (FIG. 15). […] Comparisons of viable CFU discussed in the results are determined relative to the control with half-strength BHI and 1% sucrose.

[9] = test system: S. sanguinis; assay: S. sanguinis growth curve, mono-species culture (Example 3); format: cell-based, Streptococcus sanguinis JFP36
Method: as §5, §6

[10] = test system: S. sanguinis; assay: Dual-species competition model, S. mutans primary colonizer: S. sanguinis CFU; format: cell-based, Streptococcus sanguinis JFP36; conditions: for increase of live S. sanguinis cells (secondary colonizer): S. mutans primary colonizer
Method: (§7) Agar was incubated for 24-36 hours.

[11] = test system: S. sanguinis; assay: Dual-species competition model, S. sanguinis primary colonizer: S. sanguinis CFU; format: cell-based, Streptococcus sanguinis JFP36; conditions: 4 hours of co-culture
Method: as §7

In the case of “MUC5B: salivary mucin MUC5B purified by FPLC from pooled human submandibular saliva”, the “S. sanguinis survival when S. mutans is the primary colonizer” value ([1]; 0.3% mucins in BHI with 1% sucrose, S. sanguinis inoculated 3 hours after S. mutans, 4 hours incubation, p<0.05) is reported as “enhances”, the “protective effect, ratio of bacteria slightly skewed” value ([1]; ratio slightly skewed (FIG. 8B)) is reported as “visible” and the “effect on S. sanguinis / S. mutans competition, equal ratios of bacteria” value ([1]; ratios of bacteria equal (FIG. 8C)) is reported as “small”. For the same substance, the “levels of S. mutans attachment and biofilm formation on glass” value [2] was “significantly reduces”, the “number of viable S. sanguinis in the biofilm and supernatant” value ([3]; 6 and 9 hours) was “did not change” and the “reduction of S. sanguinis biofilm formation” value ([3]; 6 hours) was 94%. For the same substance, the “reduction of S. sanguinis biofilm formation” value ([3]; 9 hours) was 86%, the “decrease of S. mutans (primary colonizer) biofilm formation” value ([4]; 4 hours of co-culture, relative to control) was 95% and the “effect on total viable S. mutans cells” value ([4]; S. mutans primary colonizer, 5 hours of co-culture) was “no effect”. The “effect on S. mutans growth” value ([5]; 0.4% polymer in half-strength BHI with 1% sucrose, time points up to 10 hours) was “slightly reduced or had no effect”, the “S. mutans growth with MUC5B as nutrient source” value ([5]; PBS with 0.4% MUC5B) was “neither bacterium can utilize MUC5B to enhance growth” and the “growth of S. mutans (growth curve)” value [6] was “does not alter the growth”. The “number of viable S. mutans cells (bactericidal effect)” value ([6]; timepoints up to 24 hours) was “no bactericidal effects”, the “total number of viable S. mutans cells (biofilm and supernatant)” value ([7]; 6 hours) was “decreased slightly” and the “reduction of S. mutans biofilm formation” value ([7]; 6 hours, relative to half-strength BHI with 1% sucrose) was 94%. The “S. mutans cells in the biofilm as share of total cells” value ([7]; 6 hours, with MUC5B (control without polymer 66%)) was 13%, the “total number of S. mutans cells” value ([7]; 9 hours) was “no significant effect” and the “reduction of S. mutans biofilm formation” value ([7]; 9 hours, relative to control) was 92%. The “effect on S. mutans (secondary colonizer) biofilm formation” value ([8]; S. sanguinis pioneering species, 4 hours of co-culture) was “no significant effect”, the “increase of S. mutans CFU (secondary colonizer)” value (from here on “increase of S. mutans CFU”) ([8]; 4 hours of co-culture) was 74% and the “increase of S. mutans CFU” value ([8]; 5 hours of co-culture) was 235%. For the same substance, the “increase of S. mutans CFU” value ([8]; 6 hours of co-culture) was 568%, the “effect on S. sanguinis growth” value ([9]; 0.4% polymer in half-strength BHI with 1% sucrose) was “not significantly changed” and the “S. sanguinis growth with MUC5B as nutrient source” value ([9]; PBS with 0.4% MUC5B) was “neither bacterium can utilize MUC5B to enhance growth”. For the same substance, the “increase of S. sanguinis (secondary colonizer) biofilm formation” value ([10]; S. mutans pioneering species, 4 hours of co-culture) was 313%, the “increase of live S. sanguinis cells (secondary colonizer)” value ([10]; 4 hours of co-culture) was 1670% and the “increase of live S. sanguinis cells (secondary colonizer)” value ([10]; 5 hours of co-culture) was 8700%. For the same substance, the “reduction of S. sanguinis (pioneering species) biofilm formation” value ([11]; S. sanguinis pioneering species) was 68% and the “increase of viable S. sanguinis cells (primary colonizer)” value ([11]; S. sanguinis primary colonizer) was 826%.
